Results on one molecule are retold here after patent US8026282B2, “Phenoxyalkylcarboxylic acid derivatives in the treatment of irritable bowel syndrome” (Medicinova, Inc., priority 2004, dated 2011).

The nature of series [1]: Solubility of polymorphs of compound 1. The settings on record: compared to the other polymorphs. It counts as physicochemical.
A short description of series [2]: Bioavailability of polymorphs of compound 1. It counts as in vivo. Particulars: compared to the other polymorphs.
The test system of series [3] is interstitial cystitis (IC). Nature of the series: Example 8: patient with interstitial cystitis symptoms. Format: in vivo, human. The settings on record: 1000 mg tablet orally twice daily for at least 2 months; present-tense example. As to the method: A person complains of suffering symptoms associated with interstitial cystitis (IC), including gastrointestinal symptoms of diarrhea, bloating and pain. In an effort to alleviate these symptoms, a tablet containing 1000 mg of compound (1) (Form A) is administered orally to this patient twice daily for at least 2 months. […] Similar positive results are observed for other patients complaining of the same or similar symptoms attributable to IC.

For the molecule `CCCc1c(SCCCOc2ccc(C(C)=O)c(OCCCC(=O)O)c2CCC)ccc(C(C)=O)c1O` [Form A, 4-[6-acetyl-3-[3-(4-acetyl-3-hydroxy-2-propylphenylthio)propoxy]-2-propylphenoxy]butyric acid], the solubility result in series [1] is “superior”. Moreover, the bioavailability entry in series [2] is given as “superior”. Further, in series [3], the “symptoms of interstitial cystitis reported by patient” value is recorded as “positive effects”.
